Laboratory results from patent US9695155B2, “Herbicidal substituted pyrimidinyloxy benzene compounds” (E. I. DU PONT DE NEMOURS AND COMPANY, priority 2013, dated 2017).

How the values were obtained:
arrowleaf sida = assay: Test E preemergence; format: in vivo, Sida rhombifolia; conditions: preemergence; for Arrowleaf Sida plant response rating: scale 0 to 100 (0 no effect, 100 complete control)
Procedure, shortened: (§1)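 Compound in a non-phytotoxic solvent mixture with surfactant was applied preemergence to seeds in silt loam soil, or postemergence to plants 2 to 18 cm tall grown in peat-based potting medium. Plants were kept in a greenhouse for 14 to 21 days, then rated visually against untreated controls on a 0 (no effect) to 100 (complete control) scale.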

barnyardgrass [1] = assay: Test E preemergence; format: in vivo, Echinochloa crus-galli; conditions: preemergence; for Barnyardgrass plant response rating: scale 0 to 100 (0 no effect, 100 complete control)
Procedure, shortened: as §1

rice = assay: Test C flooded paddy test; format: in vivo, Oryza sativa; conditions: Flood, scale 0 to 100 (0 no effect, 100 complete control), 13 to 15 days
Procedure, shortened: (§2)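 Test compounds are applied straight into paddy water held 3 cm above the soil surface, with that flood maintained for the whole test. After 13 to 15 days in the greenhouse, each species is scored visually relative to controls.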

morningglory = assay: Test E preemergence; format: in vivo, Ipomoea coccinea; conditions: for Morningglory plant response rating: scale 0 to 100 (0 no effect, 100 complete control)
Procedure, shortened: as §1

giant foxtail = assay: Test E preemergence; format: in vivo, Setaria faberii; conditions: for Foxtail, Giant plant response rating: scale 0 to 100 (0 no effect, 100 complete control)
Procedure, shortened: as §1

johnsongrass = assay: Test E preemergence; format: in vivo, Sorghum halepense; conditions: for Johnsongrass plant response rating: scale 0 to 100 (0 no effect, 100 complete control)
Procedure, shortened: as §1

goosegrass = assay: Test E preemergence; format: in vivo, Eleusine indica; conditions: for Goosegrass plant response rating: scale 0 to 100 (0 no effect, 100 complete control)
Procedure, shortened: as §1

field bindweed = assay: Test E preemergence; format: in vivo, Convolvulus arvensis; conditions: for Field Bindweed plant response rating: scale 0 to 100 (0 no effect, 100 complete control)
Procedure, shortened: as §1

sedge, umbrella = assay: Test C flooded paddy test; format: in vivo, Cyperus difformis; conditions: Flood, scale 0 to 100 (0 no effect, 100 complete control), 13 to 15 days
Procedure, shortened: as §2

corn = assay: Test E preemergence; format: in vivo, Zea mays; conditions: for Corn plant response rating: scale 0 to 100 (0 no effect, 100 complete control)
Procedure, shortened: as §1

barnyardgrass [2] = assay: Test C flooded paddy test; format: in vivo, Echinochloa crus-galli; conditions: Flood, scale 0 to 100 (0 no effect, 100 complete control), 13 to 15 days
Procedure, shortened: as §2

[3] = 8 g ai/ha, scale 0 to 100, 0 is no effect, 100 is complete control
[4] = 125 g ai/ha, scale 0 to 100, 0 no effect, 100 complete control

## Fc1cccc(Oc2ncc(Cl)cn2)c1-n1cc(I)cn1 [Compound 179]
Arrowleaf sida; [3]
  Plant response rating, Arrowleaf Sida: 0
Arrowleaf sida; 16 g ai/ha
  Arrowleaf Sida plant response rating: 20
Arrowleaf sida; 62 g ai/ha
  Arrowleaf Sida plant response rating: 100
Arrowleaf sida; [4]
  Plant response rating, Arrowleaf Sida: 100
Barnyardgrass [1]; [3]
  Plant response rating, Barnyardgrass: 0
Barnyardgrass [1]; 16 g ai/ha
  Barnyardgrass plant response rating: 0
Barnyardgrass [1]; 62 g ai/ha
  Barnyardgrass plant response rating: 10
Barnyardgrass [1]; [4]
  Plant response rating, Barnyardgrass: 20
rice; 31 g ai/ha
  Plant response rating, Rice: 0
rice; 62 g ai/ha
  Plant response rating, Rice: 0
rice; 125 g ai/ha
  Plant response rating, Rice: 10
rice; 250 g ai/ha
  Plant response rating, Rice: 10
morningglory; [3]
  Plant response rating, Morningglory: 0
morningglory; 62 g ai/ha
  Morningglory plant response rating: 10
morningglory; [4]
  Plant response rating, Morningglory: 30
Giant foxtail; [3]
  Plant response rating, Foxtail, Giant: 0
Giant foxtail; 16 g ai/ha
  Foxtail, Giant plant response rating: 0
Giant foxtail; 62 g ai/ha
  Foxtail, Giant plant response rating: 65
Giant foxtail; [4]
  Plant response rating, Foxtail, Giant: 100
johnsongrass; [3]
  Plant response rating, Johnsongrass: 0
johnsongrass; 62 g ai/ha
  Johnsongrass plant response rating: 20
johnsongrass; [4]
  Plant response rating, Johnsongrass: 25
goosegrass; [3]
  Plant response rating, Goosegrass: 0
goosegrass; 62 g ai/ha
  Goosegrass plant response rating: 35
goosegrass; [4]
  Plant response rating, Goosegrass: 70
Field bindweed; [3]
  Plant response rating, Field Bindweed: 0
Field bindweed; 16 g ai/ha
  Field Bindweed plant response rating: 0
Field bindweed; 62 g ai/ha
  Field Bindweed plant response rating: 0
Field bindweed; [4]
  Plant response rating, Field Bindweed: 30
sedge, umbrella; 31 g ai/ha
  Plant response rating, Sedge, Umbrella: 0
sedge, umbrella; 62 g ai/ha
  Plant response rating, Sedge, Umbrella: 0
sedge, umbrella; 125 g ai/ha
  Plant response rating, Sedge, Umbrella: 40
sedge, umbrella; 250 g ai/ha
  Plant response rating, Sedge, Umbrella: 80
corn; [3]
  Plant response rating, Corn: 0
corn; 16 g ai/ha
  Corn plant response rating: 0
corn; 62 g ai/ha
  Corn plant response rating: 0
corn; [4]
  Plant response rating, Corn: 0
Barnyardgrass [2]; 31 g ai/ha
  Plant response rating, Barnyardgrass: 0
Barnyardgrass [2]; 62 g ai/ha
  Plant response rating, Barnyardgrass: 0
Barnyardgrass [2]; 125 g ai/ha
  Plant response rating, Barnyardgrass: 0
Barnyardgrass [2]; 250 g ai/ha
  Plant response rating, Barnyardgrass: 0

## FC(F)(F)c1cnn(-c2c(Cl)cccc2Oc2ncc(Cl)cn2)c1 [Compound 167]
Arrowleaf sida; 16 g ai/ha
  Arrowleaf Sida plant response rating: 65
Arrowleaf sida; 31 g ai/ha
  Arrowleaf Sida plant response rating: 65
Arrowleaf sida; 62 g ai/ha
  Arrowleaf Sida plant response rating: 100
Arrowleaf sida; [4]
  Plant response rating, Arrowleaf Sida: 100
Barnyardgrass [1]; 16 g ai/ha
  Barnyardgrass plant response rating: 20
Barnyardgrass [1]; 31 g ai/ha
  Barnyardgrass plant response rating: 20
Barnyardgrass [1]; 62 g ai/ha
  Barnyardgrass plant response rating: 25
Barnyardgrass [1]; [4]
  Plant response rating, Barnyardgrass: 75
rice; 31 g ai/ha
  Plant response rating, Rice: 0
rice; 62 g ai/ha
  Plant response rating, Rice: 0
rice; 125 g ai/ha
  Plant response rating, Rice: 0
rice; 250 g ai/ha
  Plant response rating, Rice: 0
morningglory; 31 g ai/ha
  Morningglory plant response rating: 25
morningglory; 62 g ai/ha
  Morningglory plant response rating: 40
morningglory; [4]
  Plant response rating, Morningglory: 65
Giant foxtail; 16 g ai/ha
  Foxtail, Giant plant response rating: 0
Giant foxtail; 31 g ai/ha
  Foxtail, Giant plant response rating: 0
Giant foxtail; 62 g ai/ha
  Foxtail, Giant plant response rating: 100
Giant foxtail; [4]
  Plant response rating, Foxtail, Giant: 100
johnsongrass; 31 g ai/ha
  Johnsongrass plant response rating: 10
johnsongrass; 62 g ai/ha
  Johnsongrass plant response rating: 30
johnsongrass; [4]
  Plant response rating, Johnsongrass: 70
goosegrass; 31 g ai/ha
  Goosegrass plant response rating: 60
goosegrass; 62 g ai/ha
  Goosegrass plant response rating: 75
goosegrass; [4]
  Plant response rating, Goosegrass: 98
Field bindweed; 16 g ai/ha
  Field Bindweed plant response rating: 0
Field bindweed; 31 g ai/ha
  Field Bindweed plant response rating: 0
Field bindweed; 62 g ai/ha
  Field Bindweed plant response rating: 0
Field bindweed; [4]
  Plant response rating, Field Bindweed: 10
sedge, umbrella; 31 g ai/ha
  Plant response rating, Sedge, Umbrella: 60
sedge, umbrella; 62 g ai/ha
  Plant response rating, Sedge, Umbrella: 70
sedge, umbrella; 125 g ai/ha
  Plant response rating, Sedge, Umbrella: 80
sedge, umbrella; 250 g ai/ha
  Plant response rating, Sedge, Umbrella: 85
corn; 16 g ai/ha
  Corn plant response rating: 0
corn; 31 g ai/ha
  Corn plant response rating: 0
corn; 62 g ai/ha
  Corn plant response rating: 15
corn; [4]
  Plant response rating, Corn: 25
Barnyardgrass [2]; 31 g ai/ha
  Plant response rating, Barnyardgrass: 0
Barnyardgrass [2]; 62 g ai/ha
  Plant response rating, Barnyardgrass: 0
Barnyardgrass [2]; 125 g ai/ha
  Plant response rating, Barnyardgrass: 0
Barnyardgrass [2]; 250 g ai/ha
  Plant response rating, Barnyardgrass: 0
